{"source": "patent US20260262632A1", "about": "“COMPOSITIONS AND METHODS FOR TANK-MIX SPRAY APPLICATION OF 1-MCP” (AGROFRESH INC., priority 2023, published 2026)", "origin": "cited, not measured here", "data": [{"smiles": "CC1=CC1", "note": "[1-MCP, 1-Methylcyclopropene]", "values": [{"measurement": "concentration above which gaseous 1-MCP is flammable", "value": "> 13,300 ppm"}]}]}
